Results on seven molecules are retold here after patent US20250353891A1 (MEDIMMUNE LIMITED, priority 2022, published 2025).

For test [1], the target named is human GLP-1 receptor (hGLP-1R) (Homo sapiens, UniProt P43220). Kind of test: cAMP production (HTRF) in CHO cells expressing hGLP-1R. The test is classed as cell-based. Also on record: expressed in transfected cells. The settings on record: for EC50: Table 7, peptides modified at position 20, cAMP in CHO hGLP-1R cells, geometric mean, read-out: hGLP-1R EC50; for % Relative Potency Ratio: Table 7, % GLP-1R activity relative to GLP-1 / % GlucR activity relative to glucagon. An outline of the steps:
(§1)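 Read-out: HTRF cAMP (anti-cAMP cryptate donor, cAMP-d2 acceptor in conjugate/lysis buffer), converted to % Delta F and fitted by 4-parameter logistic for EC50. Cell densities were 1×10^5 cells/mL (hGLP-1R) or 2×10^5 cells/mL (hGCGR). Stimulation lasted 30 min at room temperature.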

The target of test [2] is human glucagon receptor (hGCGR) (Homo sapiens, UniProt P47871). Kind of test: cAMP production (HTRF) in CHO cells expressing hGCGR. More on the design: expressed in transfected cells. The test is classed as cell-based. The note with it: Table 7, peptides modified at position 20; cAMP in CHO hGCGR cells; geometric mean; read-out: hGluc-R EC50. An outline of the steps: as §1
Sequence of human glucagon receptor (hGCGR) (P47871 26-477): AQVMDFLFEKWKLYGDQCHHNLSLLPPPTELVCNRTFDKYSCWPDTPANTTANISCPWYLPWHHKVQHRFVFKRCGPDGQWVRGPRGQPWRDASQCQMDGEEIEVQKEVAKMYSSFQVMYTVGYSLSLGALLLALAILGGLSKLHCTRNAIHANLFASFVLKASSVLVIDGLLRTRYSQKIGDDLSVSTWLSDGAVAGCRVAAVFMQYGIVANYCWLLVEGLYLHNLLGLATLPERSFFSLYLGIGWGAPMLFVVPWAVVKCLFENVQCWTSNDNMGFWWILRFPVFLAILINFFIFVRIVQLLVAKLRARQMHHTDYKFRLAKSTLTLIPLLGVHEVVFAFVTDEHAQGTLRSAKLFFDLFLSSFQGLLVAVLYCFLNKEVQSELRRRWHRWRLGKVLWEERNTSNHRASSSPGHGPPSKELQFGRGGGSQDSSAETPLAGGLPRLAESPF
A general note: Cyclic AMP is a second messenger, typically raised through Gs and lowered through Gi signalling.

Starred links: 1 amine or outer side, 2 acyl side, 3 side chain; linkers in the order of their positions; H or OH if unused. Non-standard residues stand in square brackets, D forms with d. Residues, ends and D or L forms follow the SMILES beside them. Groups on a side chain read outwards from the residue. *: point of attachment. C20 diacid = O=C(O)CCCCCCCCCCCCCCCCCCC(=O)*; C18 diacid = O=C(O)CCCCCCCCCCCCCCCCC(=O)*; γGlu = O=C(O)[C@H](CCC(=O)[*:2])N[*:1]; αMeF = C[C@](N)(Cc1ccccc1)C(=O)O; AEEA = NCCOCCOCC(=O)O; Aib = CC(C)(N)C(=O)O

Sequence of human GLP-1 receptor (hGLP-1R) (P43220 24-463): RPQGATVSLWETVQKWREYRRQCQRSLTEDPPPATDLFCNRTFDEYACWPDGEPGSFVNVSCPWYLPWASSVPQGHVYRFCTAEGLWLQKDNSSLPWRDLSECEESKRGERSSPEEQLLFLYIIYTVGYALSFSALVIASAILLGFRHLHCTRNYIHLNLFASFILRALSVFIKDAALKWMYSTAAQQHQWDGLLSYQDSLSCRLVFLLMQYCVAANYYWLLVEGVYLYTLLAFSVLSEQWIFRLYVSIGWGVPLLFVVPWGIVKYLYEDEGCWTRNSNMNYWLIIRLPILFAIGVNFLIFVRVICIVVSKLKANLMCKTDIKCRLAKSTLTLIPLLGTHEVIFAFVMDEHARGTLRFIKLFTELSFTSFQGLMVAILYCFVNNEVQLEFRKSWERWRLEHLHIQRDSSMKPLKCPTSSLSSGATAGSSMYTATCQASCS

By EC50 is commonly meant the concentration at which the effect is half-maximal. As to `CC[C@H](C)[C@H](NC(=O)[C@H](Cc1c[nH]c2ccccc12)NC(=O)[C@H](CCC(N)=O)NC(=O)[C@@H](NC(=O)[C@](C)(Cc1ccccc1)NC(=O)[C@H](CC(=O)O)NC(=O)[C@H](CCCCNC(=O)COCCOCCNC(=O)COCCOCCNC(=O)CC[C@H](NC(=O)CC[C@H](NC(=O)CCCCCCCCCCCCCCCCC(=O)O)C(=O)O)C(=O)O)NC(=O)[C@H](C)NC(=O)[C@H](C)NC(=O)[C@H](CCCNC(=N)N)NC(=O)[C@H](CO)NC(=O)[C@H](CC(=O)O)NC(=O)[C@H](CC(C)C)NC(=O)[C@](C)(Cc1ccccc1)NC(=O)[C@H](CCCCN)NC(=O)[C@H](CO)NC(=O)[C@@H](NC(=O)[C@H](CC(=O)O)NC(=O)[C@H](CO)NC(=O)[C@@H](NC(=O)[C@](C)(Cc1ccccc1)NC(=O)[C@H](CO)NC(=O)CNC(=O)[C@H](Cc1c[nH]cn1)NC(=O)C(C)(C)NC(=O)[C@@H](N)Cc1c[nH]cn1)[C@@H](C)O)C(C)C)C(C)C)C(=O)N[C@@H](C)C(=O)N[C@@H](CC(N)=O)C(=O)N[C@H](C(=O)NCC(N)=O)[C@@H](C)O` [Peptide 240] (H-H[Aib]HGS[αMeF]TSDVSK[αMeF]LDSRAAK([AEEA-AEEA-γGlu-γGlu-C18 diacid])D[αMeF]VQWIANTG-NH2), the EC50 in test [1] was 0.0571 nM; in test [2], 0.332 nM. In addition, in test [1], the “% Relative Potency Ratio” value is recorded as 11.5.

In the case of `CC[C@H](C)[C@H](NC(=O)[C@H](Cc1c[nH]c2ccccc12)NC(=O)[C@H](CCC(N)=O)NC(=O)[C@@H](NC(=O)[C@](C)(Cc1ccccc1)NC(=O)[C@H](CC(=O)O)NC(=O)[C@H](CCCCNC(=O)COCCOCCNC(=O)COCCOCCNC(=O)CC[C@H](NC(=O)CC[C@H](NC(=O)CCCCCCCCCCCCCCCCC(=O)O)C(=O)O)C(=O)O)NC(=O)[C@H](C)NC(=O)[C@H](C)NC(=O)[C@H](CCCNC(=N)N)NC(=O)[C@H](CO)NC(=O)[C@H](CC(=O)O)NC(=O)[C@H](CC(C)C)NC(=O)[C@](C)(Cc1ccccc1)NC(=O)[C@H](CCCCN)NC(=O)[C@H](CO)NC(=O)[C@@H](NC(=O)[C@H](CC(=O)O)NC(=O)[C@H](CO)NC(=O)[C@@H](NC(=O)[C@](C)(Cc1ccccc1)NC(=O)[C@H](CO)NC(=O)CNC(=O)[C@H](Cc1c[nH]cn1)NC(=O)C(C)(C)NC(=O)[C@@H](N)Cc1c[nH]cn1)[C@@H](C)O)C(C)C)C(C)C)C(=O)N[C@@H](C)C(=O)N[C@@H](CC(N)=O)C(=O)N[C@H](C(=O)NCC(=O)NCC(N)=O)[C@@H](C)O` [Peptide 241] (H-H[Aib]HGS[αMeF]TSDVSK[αMeF]LDSRAAK([AEEA-AEEA-γGlu-γGlu-C18 diacid])D[αMeF]VQWIANTGG-NH2; N-terminus assumed), in test [1], the 50% effective concentration (EC50) was 0.0358 nM and the “% Relative Potency Ratio” value amounted to 9.7. Moreover, in test [2], the EC50 was determined as 0.175 nM.

Take `CC[C@H](C)[C@H](NC(=O)[C@H](CO)NC(=O)[C@H](CCC(N)=O)NC(=O)[C@@H](NC(=O)[C@H](Cc1ccccc1)NC(=O)[C@H](CC(=O)O)NC(=O)[C@H](CCCCNC(=O)COCCOCCNC(=O)COCCOCCNC(=O)CC[C@H](NC(=O)CC[C@H](NC(=O)CCCCCCCCCCCCCCCCCCC(=O)O)C(=O)O)C(=O)O)NC(=O)[C@H](C)NC(=O)C(C)(C)NC(=O)[C@H](CCCNC(=N)N)NC(=O)[C@H](CO)NC(=O)[C@H](CC(=O)O)NC(=O)[C@H](CC(C)C)NC(=O)[C@](C)(Cc1ccccc1)NC(=O)[C@H](CCCCN)NC(=O)[C@H](CO)NC(=O)[C@@H](NC(=O)[C@H](CC(=O)O)NC(=O)[C@H](CO)NC(=O)[C@@H](NC(=O)[C@](C)(Cc1ccccc1)NC(=O)[C@H](CO)NC(=O)CNC(=O)[C@H](Cc1c[nH]cn1)NC(=O)C(C)(C)NC(=O)[C@@H](N)Cc1c[nH]cn1)[C@@H](C)O)C(C)C)C(C)C)C(=O)N[C@@H](C)C(=O)N[C@@H](CC(N)=O)C(=O)N[C@H](C(N)=O)[C@@H](C)O` [Peptide 242] (H-H[Aib]HGS[αMeF]TSDVSK[αMeF]LDSR[Aib]AK([AEEA-AEEA-γGlu-γGlu-C20 diacid])DFVQSIANT-NH2; N-terminus assumed): in test [1], the EC50 came out at 0.249 nM and the “% Relative Potency Ratio” value came out at 9.8. The EC50 in test [2] was 1.23 nM.

For `CC[C@H](C)[C@H](NC(=O)[C@H](CO)NC(=O)[C@H](CCC(N)=O)NC(=O)[C@@H](NC(=O)[C@](C)(Cc1ccccc1)NC(=O)[C@H](CC(=O)O)NC(=O)[C@H](CCCCNC(=O)COCCOCCNC(=O)COCCOCCNC(=O)CC[C@H](NC(=O)CCCCCCCCCCCCCCCCC(=O)O)C(=O)O)NC(=O)[C@H](C)NC(=O)[C@H](C)NC(=O)[C@H](CCCNC(=N)N)NC(=O)[C@H](CO)NC(=O)[C@H](CC(=O)O)NC(=O)[C@H](CC(C)C)NC(=O)[C@](C)(Cc1ccccc1)NC(=O)[C@H](CCCCN)NC(=O)[C@H](CO)NC(=O)[C@@H](NC(=O)[C@H](CC(=O)O)NC(=O)[C@H](CO)NC(=O)[C@@H](NC(=O)[C@](C)(Cc1ccccc1)NC(=O)[C@H](CO)NC(=O)CNC(=O)[C@H](Cc1c[nH]cn1)NC(=O)C(C)(C)NC(=O)[C@@H](N)Cc1c[nH]cn1)[C@@H](C)O)C(C)C)C(C)C)C(=O)N[C@@H](C)C(=O)N[C@@H](CC(N)=O)C(=O)N[C@H](C(N)=O)[C@@H](C)O` [Peptide 243] (H-H[Aib]HGS[αMeF]TSDVSK[αMeF]LDSRAAK([AEEA-AEEA-γGlu-C18 diacid])D[αMeF]VQSIANT-NH2), the concentration giving a half-maximal response (EC50) in test [1] is 0.0593 nM; in test [2], 0.0506 nM. In test [1], the “% Relative Potency Ratio” value was 1.7.

On to `CC[C@H](C)[C@H](NC(=O)[C@H](CO)NC(=O)[C@H](CCC(N)=O)NC(=O)[C@@H](NC(=O)[C@](C)(Cc1ccccc1)NC(=O)[C@H](CC(=O)O)NC(=O)[C@H](CCCCNC(=O)COCCOCCNC(=O)COCCOCCNC(=O)CC[C@H](NC(=O)CC[C@H](NC(=O)CCCCCCCCCCCCCCCCCCC(=O)O)C(=O)O)C(=O)O)NC(=O)[C@H](C)NC(=O)[C@H](C)NC(=O)[C@H](CCCNC(=N)N)NC(=O)[C@H](CO)NC(=O)[C@H](CC(=O)O)NC(=O)[C@H](CC(C)C)NC(=O)[C@](C)(Cc1ccccc1)NC(=O)[C@H](CCCCN)NC(=O)[C@H](CO)NC(=O)[C@@H](NC(=O)[C@H](CC(=O)O)NC(=O)[C@H](CO)NC(=O)[C@@H](NC(=O)[C@](C)(Cc1ccccc1)NC(=O)[C@H](CO)NC(=O)CNC(=O)[C@H](Cc1c[nH]cn1)NC(=O)C(C)(C)NC(=O)[C@@H](N)Cc1c[nH]cn1)[C@@H](C)O)C(C)C)C(C)C)C(=O)N[C@@H](C)C(=O)N[C@@H](CC(N)=O)C(=O)N[C@H](C(N)=O)[C@@H](C)O` [Peptide 244] (H-H[Aib]HGS[αMeF]TSDVSK[αMeF]LDSRAAK([AEEA-AEEA-γGlu-γGlu-C20 diacid])D[αMeF]VQSIANT-NH2), for which, in test [1], the EC50 was found to be 0.143 nM and the “% Relative Potency Ratio” value was 5.8. The EC50 in test [2] was determined as 0.42 nM.

Regarding `CC[C@H](C)[C@H](NC(=O)[C@H](CO)NC(=O)[C@H](CCC(=O)O)NC(=O)[C@@H](NC(=O)[C@](C)(Cc1ccccc1)NC(=O)[C@H](CC(=O)O)NC(=O)[C@H](CCCCNC(=O)COCCOCCNC(=O)COCCOCCNC(=O)CC[C@H](NC(=O)CCCCCCCCCCCCCCCCC(=O)O)C(=O)O)NC(=O)[C@H](C)NC(=O)[C@H](C)NC(=O)[C@H](CCCNC(=N)N)NC(=O)[C@H](CO)NC(=O)[C@H](CC(=O)O)NC(=O)[C@H](CC(C)C)NC(=O)[C@](C)(Cc1ccccc1)NC(=O)[C@H](CCCCN)NC(=O)[C@H](CO)NC(=O)[C@@H](NC(=O)[C@H](CC(=O)O)NC(=O)[C@H](CO)NC(=O)[C@@H](NC(=O)[C@](C)(Cc1ccccc1)NC(=O)[C@H](CO)NC(=O)CNC(=O)[C@H](Cc1c[nH]cn1)NC(=O)C(C)(C)NC(=O)[C@@H](N)Cc1c[nH]cn1)[C@@H](C)O)C(C)C)C(C)C)C(=O)N[C@@H](C)C(=O)N[C@@H](CC(N)=O)C(=O)N[C@H](C(N)=O)[C@@H](C)O` [Peptide 245] (H-H[Aib]HGS[αMeF]TSDVSK[αMeF]LDSRAAK([AEEA-AEEA-γGlu-C18 diacid])D[αMeF]VESIANT-NH2), the EC50 in test [1] is 0.11 nM; in test [2], 0.0627 nM. Further, the “% Relative Potency Ratio” value in test [1] is 1.1.

For the molecule `CC[C@H](C)[C@H](NC(=O)[C@H](CO)NC(=O)[C@H](CCC(=O)O)NC(=O)[C@@H](NC(=O)[C@](C)(Cc1ccccc1)NC(=O)[C@H](CC(=O)O)NC(=O)[C@H](CCCCNC(=O)COCCOCCNC(=O)COCCOCCNC(=O)CC[C@H](NC(=O)CC[C@H](NC(=O)CCCCCCCCCCCCCCCCCCC(=O)O)C(=O)O)C(=O)O)NC(=O)[C@H](C)NC(=O)[C@H](C)NC(=O)[C@H](CCCNC(=N)N)NC(=O)[C@H](CO)NC(=O)[C@H](CC(=O)O)NC(=O)[C@H](CC(C)C)NC(=O)[C@](C)(Cc1ccccc1)NC(=O)[C@H](CCCCN)NC(=O)[C@H](CO)NC(=O)[C@@H](NC(=O)[C@H](CC(=O)O)NC(=O)[C@H](CO)NC(=O)[C@@H](NC(=O)[C@](C)(Cc1ccccc1)NC(=O)[C@H](CO)NC(=O)CNC(=O)[C@H](Cc1c[nH]cn1)NC(=O)C(C)(C)NC(=O)[C@@H](N)Cc1c[nH]cn1)[C@@H](C)O)C(C)C)C(C)C)C(=O)N[C@@H](C)C(=O)N[C@@H](CC(N)=O)C(=O)N[C@H](C(N)=O)[C@@H](C)O` [Peptide 246] (H-H[Aib]HGS[αMeF]TSDVSK[αMeF]LDSRAAK([AEEA-AEEA-γGlu-γGlu-C20 diacid])D[αMeF]VESIANT-NH2), in test [1], the EC50 is 0.32 nM and the “% Relative Potency Ratio” value is reported as 3.4. Also, in test [2], the EC50 came to 0.557 nM.
